Series [1] concerns wild-type HIV-1 (HIV-1LAI) in H9 cells (non-permissive). The experiment in a line: microbe, parasite or virus in culture. The class given is cell-based. As to conditions: for antiviral activity against HIV-1 (in words): HIV-1 replication.
The test system of series [2] is HA-tagged A3G and GFP-tagged Vif or ΔVif in 293FT cells. The experiment in a line: Immunoblot of A3G and Vif levels in transfected 293FT cells. The following applies: 293FT cells, 50 μM, 16 h.
Series [3] in a line: Water solubility of choline salts. The class given is physicochemical.
The test system of series [4] is Zika virus. Kind of series: Zika viral replication inhibition. As to conditions: FIG. 20. The class given is cell-based.
The test system of series [5] is Ebola virus. The series is classed as cell-based. The following applies: FIG. 19.
Series [6] deals with wild-type HIV-1 (HIV-1LAI) in MT-4 cells (permissive). Kind of series: Antiviral activity assay: wild-type HIV-1 in permissive MT4 cells, reverse transcriptase activity in culture supernatants. The series is classed as cell-based.
[7] abbreviates: Human immunodeficiency virus 1, H9, read-out: IC50, anti-HIV-1 activity, non-permissive H9 cells.
Setting [8] is: Human immunodeficiency virus 1, H9, read-out: Antiviral activity (IC50 μM) H9 cells, Table 5, wild-type HIV-1, non-permissive H9 cells.
Setting [9] is: Human immunodeficiency virus 1, H9, read-out: Antiviral activity (IC50 μM) H9 cells, Table 8, wild-type HIV-1, non-permissive H9 cells.
Setting [10] is: Human immunodeficiency virus 1, H9, read-out: Antiviral activity (IC50 μM) H9 cells, wild-type HIV-1 (HIV-1LAI), H9 cells (non-permissive), RT activity in culture supernatants, compounds 1 to 50 μM.
Setting [11] is: Human immunodeficiency virus 1, MT4, Table 2, wild-type HIV-1, permissive MT4 cells, read-out: Antiviral activity (IC50 μM) MT4.
Setting [12] is: Human immunodeficiency virus 1, MT4, wild-type HIV-1 (HIV-1LAI), MT4 cells (permissive), RT activity in culture supernatants, compounds 1 to 50 μM, read-out: Antiviral activity (IC50 μM) MT4 cells.
[13] abbreviates: Human immunodeficiency virus 1, H9, read-out: Antiviral activity (IC50 μM) H9, Table 2, wild-type HIV-1, non-permissive H9 cells.
[14] abbreviates: Human immunodeficiency virus 1, H9, read-out: Antiviral activity (IC50 μM) H9 Cells, Table 4, wild-type HIV-1, non-permissive H9 cells.
The mark [15] stands for this setting: Human immunodeficiency virus 1, H9, read-out: Antiviral activity (IC50 μM) H9 Cells, Table 7, wild-type HIV-1, non-permissive H9 cells.

Entries after “also recorded” stand apart in the source; their conditions may differ. Where two headings read alike, the source gives them in different places. Some results are limits rather than exact numbers.

Consider `COc1ccccc1-n1cc(-c2ccccc2S(=O)(=O)c2ccc(C(=O)O)cc2)nn1` [Compound 2gy, 2-Hydroxy-N,N,N-trimethylethanaminium 4-((2-(1-(2-methoxyphenyl)-1H-1,2,3-triazol-4-yl)phenyl)sulfonyl)benzoate], for which, in series [1], the “antiviral activity against HIV-1 (in words)” value (shortened to “antiviral activity”) is “potent activities”. Further, the IC50 – broadly, the midpoint of a concentration-inhibition curve – in series [1] (setting [7]) came out at 0.2 µM. Also, the “upregulation of A3G and downregulation of Vif (immunoblots, FIG. 16)” value (from here on “upregulation”) in series [2] was “same mechanism as of RN-18; also recorded: same mechanism as observed for RN-18 and 1d”. In series [3], the water solubility entry is “water-soluble”.

Regarding `COC(=O)c1ccc(Sc2ccccc2-c2cn(-c3ccc(OC)cc3OC)nn2)cc1` [Compound 4bx, Methyl 4-((2-(1-(2,4-dimethoxyphenyl)-1H-1,2,3-triazol-4-yl)phenyl)thio)benzoate], the concentration for half-maximal inhibition (IC50) in series [1] (setting [8]), in series [1] (setting [9]) and in series [1] (setting [10]) was 2 µM throughout. Moreover, in series [4], the Zika viral replication entry is recorded as “Zika viral replication inhibition”. The Ebola viral replication entry in series [5] was “Ebola viral replication inhibition”.

Turning to `COc1ccc(-n2cc(-c3ccccc3S(=O)(=O)c3ccc(C(=O)O)cc3)nn2)c(OC)c1` [Compound 4gy, 2-Hydroxy-N,N,N-trimethylethanaminium 4-((2-(1-(2,4-dimethoxyphenyl)-1H-1,2,3-triazol-4-yl)phenyl)sulfonyl)benzoate], the IC50 in series [6] (setting [11]) is over 50 µM; in series [6] (setting [12]), over 50 µM; in series [1] (setting [13]), 0.7 µM; in series [1] (setting [14]), 0.7 µM; in series [1] (setting [15]), 0.7 µM; in series [1] (setting [7]), 0.7 µM. In addition, the “antiviral activity” value in series [1] is listed as “potent activities”. For the same compound, in series [3], the water solubility result is on record as “water-soluble”.

For `COc1ccc(OC)c(-n2cc(-c3ccccc3S(=O)(=O)c3ccc([N+](=O)[O-])cc3)nn2)c1` [Compound 5ay, 1-(2,5-Dimethoxyphenyl)-4-(2-((4-nitrophenyl)sulfonyl)phenyl)-1H-1,2,3-triazole], the IC50 is over 50 µM in series [6] (setting [11]); over 50 µM in series [6] (setting [12]); 1 µM in series [1] (setting [13]); 1 µM in series [1] (setting [14]); 1 µM in series [1] (setting [15]); 1 µM in series [1] (setting [8]). In addition, the IC50 in series [1] (setting [9]) is 1 µM; in series [1] (setting [10]), 1 µM; in series [1] (setting [7]), 1 to 3 µM. Also, the Ebola viral replication entry in series [5] is recorded as “Ebola viral replication inhibition”.

With `COC(=O)c1ccc(Sc2ccccc2-c2cn(-c3cc(OC)ccc3OC)nn2)cc1` [Compound 5bx, Methyl 4-((2-(1-(2,5-dimethoxyphenyl)-1H-1,2,3-triazol-4-yl)phenyl)thio)benzoate], the IC50 in series [6] (setting [11]) is over 50 µM; in series [6] (setting [12]), over 50 µM; in series [1] (setting [13]), 0.2 µM; in series [1] (setting [14]) it was 0.2 µM; in series [1] (setting [15]) it was 0.2 µM; in series [1] (setting [8]) it was 0.2 µM. Further, the IC50 in series [1] (setting [9]), in series [1] (setting [10]) and in series [1] (setting [7]) was 0.2 µM each time. Moreover, the Zika viral replication result in series [4] was “Zika viral replication inhibition”. Further, the “upregulation” value in series [2] was “same mechanism as of RN-18; also recorded: same mechanism as observed for RN-18 and 1d”.

As for `COc1ccc(OC)c(-n2cc(-c3ccccc3S(=O)(=O)c3ccc(C(=O)O)cc3)nn2)c1` [Compound 5gy, 2-Hydroxy-N,N,N-trimethylethanaminium 4-((2-(1-(2,5-dimethoxyphenyl)-1H-1,2,3-triazol-4-yl)phenyl)sulfonyl)benzoate], in series [1], the “antiviral activity” value was “potent activities”. For the same compound, the IC50 in series [1] (setting [14]), in series [1] (setting [15]) and in series [1] (setting [7]) was 0.5 µM in each case. Besides, the “upregulation” value in series [2] is “same mechanism as of RN-18; also recorded: same mechanism as observed for RN-18 and 1d”. Further, the water solubility entry in series [3] is given as “water-soluble”.

As to `COC(=O)c1ccc(Sc2ccccc2-c2cn(-c3c(OC)cccc3OC)nn2)cc1` [Compound 6bx, Methyl 4-((2-(1-(2,6-dimethoxyphenyl)-1H-1,2,3-triazol-4-yl)phenyl)thio)benzoate], the IC50 in series [1] (setting [14]), in series [1] (setting [15]), in series [1] (setting [8]), in series [1] (setting [9]), in series [1] (setting [10]) and in series [1] (setting [7]) was 0.2 µM throughout. Further, the Zika viral replication entry in series [4] is on record as “Zika viral replication inhibition”.

Source of the values: patent publication US11136301B2, “Broad spectrum antiviral compounds and uses thereof” (The Regents Of The University Of California, priority 2015, dated 2021).
